From paper PMC4536076, “Chemical Library Screening and Structure-Function Relationship Studies Identify Bisacodyl as a Potent and Selective Cytotoxic Agent Towards Quiescent Human Glioblastoma Tumor Stem-Like Cells” (PLoS ONE, 2015)
Structures can show the parent of a compound that is named as a salt. Where two headings read alike, the source gives them in different places.

Legend:
proliferating TG1 GSCs = details: primary screen, 50 μM, 24 h
Procedure: (§1) Proliferating or quiescent TG1 GSCs were seeded (30 000 and 40 000 viable cells/well, respectively) into 96-well opaque bottom plates (Greiner) with the Biomek FX robot (Beckman Coulter). Each compound from the Prestwick Library was then added (final concentration: 50 μM; 1% DMSO). Each molecule was tested once. Negative control wells (12/96 per assay plate) contained cells treated with 1% DMSO (final concentration) and positive control wells (4/96 per assay plate) contained cells treated with the fungal toxin ophiobolin A (Sigma Aldrich) at 50 μM with 1% DMSO. […] Luminescence in each well was measured with the Victor3 plate reader (PerkinElmer).
(§2) Relative ATP levels in each well were determined by calculating the percentage of luminescent signal in the well with respect to the average signal measured in negative control wells.
(§3) Primary screen hits were further tested in duplicate, at two concentrations (50 and 5 μM) on proliferating and quiescent TG1 GSCs. Cell plating and treatment with compounds were as for the primary screen. Hit selection/confirmation criteria for quiescent cells were as described above.

quiescent TG1 GSCs = system: quiescent TG1 GSCs
Procedure: as §1, §2, §3

Compound	Activity on proliferating TG1 GSCs (hit compounds reducing ATP levels) (proliferating TG1 GSCs)	Activity on quiescent TG1 GSCs (hit compounds reducing ATP levels) (quiescent TG1 GSCs; primary screen, 50 μM, 24 h)	also measured
COc1cc(/C=C/C(=O)N2CCC=CC2=O)cc(OC)c1OC [Piperlongumine]	yes		
CSc1ccc2c(c1)N(CCC1CCCCN1C)c1ccccc1S2 (stereo not shown) [Thioridazine hydrochloride]	yes		
CC(C(=O)O)c1ccc(N2Cc3ccccc3C2=O)cc1 (stereo not shown) [Indoprofen]	yes		
Cc1cccc(CN2CCN(C(c3ccccc3)c3ccc(Cl)cc3)CC2)c1.Cl.Cl (stereo not shown) [Meclozine dihydrochloride]	yes	yes	
CCCCc1oc2ccccc2c1C(=O)c1cc(I)c(OCCN(CC)CC)c(I)c1 [Amiodarone hydrochloride]	yes	yes	
Cc1cccc(C)c1NC(=O)CN1CCN(CCCC(c2ccc(F)cc2)c2ccc(F)cc2)CC1 [Lidoflazine]	yes		
CC(C)(Sc1cc(C(C)(C)C)c(O)c(C(C)(C)C)c1)Sc1cc(C(C)(C)C)c(O)c(C(C)(C)C)c1 [Probucol]			Activity on proliferating TG1 CSCs (hit compounds increasing ATP levels) (proliferating TG1 GSCs): yes
[H]/N=C(\N/C(=N/[H])NCCCCCCNC(=N)NC(=N)Nc1ccc(Cl)cc1)Nc1ccc(Cl)cc1 [Chlorhexidine]	yes		
C[n+]1cc2c3c(ccc2c2ccc4cc5c(cc4c21)OCO5)OCO3 [Sanguinarine]	yes	yes	
Avermectin B1	yes	yes	
CCCCCCCCCCCCCCCC[N+](C)(C)CCN(Cc1ccc(OC)cc1)c1ncccn1 [Thonzonium bromide]	yes	yes	
CN(C)[C@@H]1C(O)=C(C(N)=O)C(=O)[C@@]2(O)C(O)=C3C(=O)c4c(O)ccc(Cl)c4[C@@H](O)[C@H]3C[C@@H]12.Cl [Dimeclocycline hydrochloride]	yes		
Clc1ccc(C(Cn2ccnc2)OCc2csc3c(Cl)cccc23)c(Cl)c1 (stereo not shown) [Sertaconazole nitrate]	yes	yes	
O[C@H]1[C@H]2c3cc4c(cc3CN3CCC(=C[C@@H]1O)[C@H]23)OCO4 [Lycorine hydrochloride]	yes	yes	
CN[C@H]1CC[C@@H](c2ccc(Cl)c(Cl)c2)c2ccccc21 [Sertraline]	yes	yes	
Cc1cc2c(C(C)C)c(O)c(O)c(C=O)c2c(O)c1-c1c(C)cc2c(C(C)C)c(O)c(O)c(C=O)c2c1O [Gossypol]	yes	yes	
COc1cc2nc(N3CCN(C(=O)c4ccco4)CC3)nc(N)c2cc1OC [Prazosin hydrochloride]	yes	yes	
CC(=O)O[C@H]1C[C@H](O[C@H]2[C@@H](O)C[C@H](O[C@H]3[C@@H](O)C[C@H](O[C@H]4CC[C@@]5(C)[C@H](CC[C@@H]6[C@@H]5C[C@@H](O)[C@]5(C)[C@@H](C7=CC(=O)OC7)CC[C@]65O)C4)O[C@@H]3C)O[C@@H]2C)O[C@H](C)[C@H]1O[C@@H]1O[C@H](CO)[C@@H](O)[C@H](O)[C@H]1O [Lanatoside C]	yes	yes	
CC(COc1ccccc1)N(CCCl)Cc1ccccc1 (stereo not shown) [Phenoxybenzamine hydrochloride]			Activity on proliferating TG1 CSCs (hit compounds increasing ATP levels) (proliferating TG1 GSCs): yes
CC[C@@H](C(=O)[C@@H](C)[C@@H](O)[C@H](C)CCc1ccc(C)c(O)c1C(=O)[O-])[C@H]1O[C@](CC)([C@H]2CC[C@](O)(CC)[C@H](C)O2)C[C@@H]1C.[Na+] [Lasalocid sodium salt]	yes	yes	
CNCCCC1c2ccccc2C=Cc2ccccc21 [Protriptyline hydrochloride]	yes		
CCOC(=O)C1=C(C)NC(C)=C(C(=O)OC)C1c1cccc([N+](=O)[O-])c1 (stereo not shown) [Nitrendipine]	yes		Activity on quiescent TG1 CSCs (hit compounds increasing ATP levels) (quiescent TG1 GSCs; primary screen, 50 μM, 24 h): yes
Nc1ncnc2c1ncn2[C@@H]1O[C@@H]2COP(=O)(O)O[C@H]2[C@H]1O [Cyclic AMP]			Activity on proliferating TG1 CSCs (hit compounds increasing ATP levels) (proliferating TG1 GSCs): yes
Clc1ccccc1C(c1ccccc1)(c1ccccc1)n1ccnc1 [Clotrimazol]	yes	yes	

Compound	Activity on proliferating TG1 GSCs (hit compounds reducing ATP levels) (proliferating TG1 GSCs)	Activity on quiescent TG1 GSCs (hit compounds reducing ATP levels) (quiescent TG1 GSCs; primary screen, 50 μM, 24 h)	also measured
CCC1(c2ccccc2)C(=O)NCNC1=O [Primidone]			Activity on proliferating TG1 CSCs (hit compounds increasing ATP levels) (proliferating TG1 GSCs): yes
CC[C@H]1CN2CCc3cc(OC)c(OC)cc3[C@@H]2C[C@@H]1C[C@H]1NCCc2cc(O)c(OC)cc21.Cl.Cl.O.O.O.O.O.O.O [Cephaeline dihydrochloride heptahydrate]	yes	yes	
CCN1CCN(C(=O)N[C@@H](C(=O)N[C@@H]2C(=O)N3[C@@H]2SC(C)(C)[C@@H]3C(=O)O)c2ccccc2)C(=O)C1=O [Piperacillin sodium salt]	yes		
CC/C(=C(\c1ccccc1)c1ccc(OCCN(C)C)cc1)c1ccccc1 [Tamoxifen citrate]	yes	yes	
C[C@H]1CC[C@]2(NC1)O[C@H]1C[C@H]3[C@@H]4CC[C@H]5C[C@@H](O[C@@H]6O[C@H](CO)[C@H](O[C@@H]7O[C@H](CO)[C@@H](O)[C@H](O[C@@H]8OC[C@@H](O)[C@H](O)[C@H]8O)[C@H]7O[C@@H]7O[C@H](CO)[C@@H](O)[C@H](O)[C@H]7O)[C@H](O)[C@H]6O)CC[C@]5(C)[C@H]4CC[C@]3(C)[C@H]1[C@@H]2C [Tomatine]	yes	yes	
C[C@@H]1O[C@@H](O[C@H]2C[C@@H](O)[C@]3(CO)[C@H]4[C@H](O)C[C@]5(C)[C@@H](C6=CC(=O)OC6)CC[C@]5(O)[C@@H]4CC[C@]3(O)C2)[C@H](O)[C@H](O)[C@H]1O.O.O.O.O.O.O.O.O [Strophantine octahydrate]		yes	
Oc1c(I)cc(Cl)c2cccnc12 [Clioquinol]	yes		
C[C@H]1O[C@@H](O[C@H]2[C@@H](O)C[C@H](O[C@H]3[C@@H](O)C[C@H](O[C@H]4CC[C@@]5(C)[C@H](CC[C@@H]6[C@@H]5C[C@@H](O)[C@]5(C)[C@@H](C7=CC(=O)OC7)CC[C@]65O)C4)O[C@@H]3C)O[C@@H]2C)C[C@H](O)[C@@H]1O [Digoxin]	yes		
CCOc1ccc(Cc2nccc3cc(OCC)c(OCC)cc23)cc1OCC [Ethaverine hydrochloride]		yes	
OCCN1CCN(CCCN2c3ccccc3Sc3ccc(Cl)cc32)CC1 [Perphenazine]	yes		
O=C(O)c1cc(-c2ccc(F)cc2F)ccc1O [Diflunisal]		yes	
Br.C[N+]1([O-])[C@@H]2CC(OC(=O)[C@H](CO)c3ccccc3)C[C@H]1[C@@H]1O[C@@H]12 (stereo partly shown) [Scopolamin-N-oxide hydrobromide]			Activity on quiescent TG1 CSCs (hit compounds increasing ATP levels) (quiescent TG1 GSCs; primary screen, 50 μM, 24 h): yes
(S)-(-)-Atenolol			Activity on quiescent TG1 CSCs (hit compounds increasing ATP levels) (quiescent TG1 GSCs; primary screen, 50 μM, 24 h): yes
O=c1c2ccccc2[se]n1-c1ccccc1 [Ebselen]		yes	
CN1CCCC(CC2c3ccccc3Sc3ccccc32)C1 (stereo not shown) [Metixene hydrochloride]	yes		
C[C@H](CCC(=O)O)[C@H]1CC[C@H]2[C@@H]3[C@@H](O)C[C@@H]4C[C@H](O)CC[C@]4(C)[C@H]3CC[C@]12C [Urosiol]			Activity on proliferating TG1 CSCs (hit compounds increasing ATP levels) (proliferating TG1 GSCs): yes
CN1C(=O)OC(C)(C)C1=O [Trimethadione]			Activity on quiescent TG1 CSCs (hit compounds increasing ATP levels) (quiescent TG1 GSCs; primary screen, 50 μM, 24 h): yes
CCC(C)(C)C(=O)O[C@H]1C[C@@H](C)C=C2C=C[C@H](C)[C@H](CC[C@@H]3C[C@@H](O)CC(=O)O3)[C@H]21 [Simvastatin]		yes	
C[C@]12CC[C@H](O)C[C@H]1CC[C@@H]1[C@@H]2CC[C@]2(C)[C@@H](C3=CC(=O)OC3)CC[C@]12O [Digitoxigenin]		yes	
CN(C)c1nc(N(C)C)nc(N(C)C)n1 [Altretamine]			Activity on proliferating TG1 CSCs (hit compounds increasing ATP levels) (proliferating TG1 GSCs): yes
C[C@@H]1O[C@@H](O[C@@H]2C=C3CC[C@@H]4[C@H](CC[C@]5(C)[C@@H](c6ccc(=O)oc6)CC[C@]45O)[C@@]3(C)CC2)[C@H](O)[C@H](O)[C@H]1O [Proscillaridin A]		yes	
CNCCC=C1c2ccccc2C=Cc2ccccc21 [Norcyclobenzaprine]	yes		
C[C@@H]1[C@H](O)[C@@H](C)/C=C/C=C/CC/C=C/C=C/C=C/C=C/C(O[C@H]2O[C@H](C)[C@@H](O)[C@H](N)[C@@H]2O)CC2O[C@](O)(CC(O)C(O)CCC(O)CC(O)CC(O)CC(=O)O[C@H]1C)CC(O)C2C(=O)O (stereo partly shown) [Nystatine]			Activity on quiescent TG1 GSCs (hit compounds reducing ATP levels) (quiescent TG1 GSCs): yes
